Assay: Solubility of redox-active electrolyte species in aqueous electrolyte

Compound	solubility (aqueous electrolyte) [mM]	solubility in the presence of NaBr (aqueous, in the presence of NaBr) [mM]
CCCCCCC[n+]1ccc(-c2cc[n+](CCCCCCC)cc2)cc1.[Br-].[Br-] [HV]	< 200	
CCCCCC[n+]1ccc(-c2cc[n+](CCCCCC)cc2)cc1 [Hexyl viologen]		< 500
